From patent publication US8575338B2, “Pyrimidine, pyridine and triazine derivatives as maxi-K channel openers” (Mitsubishi Tanabe Pharma Corporation, priority 2008, dated 2013)

target: T1, human BKαβ1 channels (Homo sapiens, UniProt Q12791); test: BK current in CHO cells expressing human BKαβ1 (PatchXpress whole-cell patch clamp), EC100; type: cell-based; conditions: drug concentration causing 100% increase of BK current
T1 construct: expressed in transfected cells; host or cells: CHO cells (G418 and hygromycin selection)
Experimental: Methods for Testing Compounds on Human BKαβ1 Channels Expressed Cho Cells
CHO cells expressing human BKαβ1 were cultured in T75 or 6 well cell culture cluster. Medium: DMEM/F12+10% FBS+0.5 mg/mL G418/genetecin+0.1 mg/mL Hygromycin. Split cells every 3-4 days at 80-90% confluence. Use cells for experiments 60-72 hrs after re-passage and at ˜90% confluence.
Trypsin solution (0.05% Trypsin+0.1% EDTA), Ca^2+ free PBS and culture medium were warmed to 37° C. Inspect the T75 flask for cell confluence. Remove culture medium and add warm Ca^2+ free PBS to wash cells. Remove Ca^2+ free PBS and add warm Trypsin solution. Put the T75 flask back to 37° C. incubator for about 4.5 minutes. Stop Trypsin activity by adding culture medium. Spin the cells down. Suspend cells in 120-160 μL external solution for BK current recording and use the cells as soon as possible.
PatchXpress Sealchip 16 electrodes (AVIVA Biosciences) and PatchXpress 7000A (Axon Instruments, Inc) were used for BK current recording. Flat bottom 1.5 mL glass vial (HiPep Laboratories) were used for containing external solutions (±compounds). The holes in the sealchip (equivalent to patch electrode) had resistance about 1.5 MΩ. Cell membrane capacitance was compensated and access resistance was also compensated by 40%. Voltage-clamp protocol: Holding voltage=0 mV. Record BK current during 200-ms steps between +80 to +120 mV in 10 mV increments and 2 sec inter-pulse interval. On-line digital leak subtraction was performed by a P/−4 procedure. After whole-cell configuration was established, 2 minute was used to optimize access resistance. Then the chamber was washed with control bath solution for 1 minute to remove excessive cells. Control bath solution was added with robotic pipette and control BK current was recorded after 1 minute equilibrium time. For each drug concentration, 45 μL drug solution was added three times with “suction before adding” mode which left old solution. For each drug addition, 1 minute equilibrium time was given. BK current was measured at each drug concentrations (usually within 3.5 minutes after first drug addition). Calculate % change of BK current at the voltage step when the control BK current first exceeding 200 pA. If the control BK current was less than 200 pA at 120 mV, the cell was not used. % changes were calculated as 100*(Id−Ic)/Ic, where Id was the current amplitude in the presence of drug and Ic was the control current amplitude.
EC100 was defined as the drug concentration causing 100% increase of BK current calculated by the method described above. EC100 was determined by the data points just below and above 100%. % Increase of BK current was plotted against log [drug concentration]. A straight line connected two data points flanking 100%. From this straight line, the concentration corresponding to 100% increase of BK current was determined as EC100.
Compounds were dissolved in DMSO to make 10 mM stock solutions. Subsequent dilutions were made with external solution. The testing drug concentrations were 0.1, 0.3, 1, 3 and 10 μM depending on the potency of compounds. The highest DMSO concentration was 0.1%. External solution (in mM): 140 NaCl, 4 KCl, 1 MgCl2, 2 CaCl2, 10 Glucose, 10 HEPES; pH=7.4 with NaOH. Internal solution (in mM): 140 KCl, 5 EGTA, 1 MgCl2, 5 MgATP, 0.2 CaCl2, 5 HEPES; pH=7.2 with KOH.

T1 sequence (Q12791 whole entry): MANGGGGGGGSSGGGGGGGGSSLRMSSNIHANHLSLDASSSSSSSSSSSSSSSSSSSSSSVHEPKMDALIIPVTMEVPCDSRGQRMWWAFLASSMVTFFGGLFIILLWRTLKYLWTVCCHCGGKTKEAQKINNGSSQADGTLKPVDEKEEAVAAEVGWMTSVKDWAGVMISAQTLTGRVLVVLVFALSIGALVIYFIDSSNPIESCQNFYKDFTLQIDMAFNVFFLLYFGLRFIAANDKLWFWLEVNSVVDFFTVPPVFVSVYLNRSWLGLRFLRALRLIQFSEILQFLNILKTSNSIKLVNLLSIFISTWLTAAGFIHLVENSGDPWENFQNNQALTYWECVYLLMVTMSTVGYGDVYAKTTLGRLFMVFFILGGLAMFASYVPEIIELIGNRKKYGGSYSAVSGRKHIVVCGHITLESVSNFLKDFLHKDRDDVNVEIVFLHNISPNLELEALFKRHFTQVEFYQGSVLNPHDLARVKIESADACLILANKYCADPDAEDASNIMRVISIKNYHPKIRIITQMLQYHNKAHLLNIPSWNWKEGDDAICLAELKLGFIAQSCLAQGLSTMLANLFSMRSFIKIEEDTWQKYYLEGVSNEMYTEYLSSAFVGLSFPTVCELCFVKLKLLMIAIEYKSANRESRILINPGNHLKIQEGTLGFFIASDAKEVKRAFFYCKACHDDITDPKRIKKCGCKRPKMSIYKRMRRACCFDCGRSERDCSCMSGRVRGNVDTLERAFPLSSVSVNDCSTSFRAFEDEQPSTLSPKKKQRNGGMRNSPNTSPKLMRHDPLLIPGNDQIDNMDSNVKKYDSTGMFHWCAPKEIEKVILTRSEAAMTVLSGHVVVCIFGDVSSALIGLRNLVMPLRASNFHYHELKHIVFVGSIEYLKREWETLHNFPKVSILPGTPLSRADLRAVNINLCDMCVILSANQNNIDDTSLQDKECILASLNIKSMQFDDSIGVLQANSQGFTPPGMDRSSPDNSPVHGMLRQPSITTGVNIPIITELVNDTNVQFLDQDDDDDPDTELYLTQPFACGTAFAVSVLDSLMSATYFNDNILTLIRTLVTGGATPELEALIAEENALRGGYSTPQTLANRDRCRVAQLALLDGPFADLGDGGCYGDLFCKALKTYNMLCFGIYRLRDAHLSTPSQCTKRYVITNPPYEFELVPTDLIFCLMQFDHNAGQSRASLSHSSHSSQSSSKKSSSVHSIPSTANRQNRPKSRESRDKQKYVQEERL
T1 sequence (Q16558 whole entry partner): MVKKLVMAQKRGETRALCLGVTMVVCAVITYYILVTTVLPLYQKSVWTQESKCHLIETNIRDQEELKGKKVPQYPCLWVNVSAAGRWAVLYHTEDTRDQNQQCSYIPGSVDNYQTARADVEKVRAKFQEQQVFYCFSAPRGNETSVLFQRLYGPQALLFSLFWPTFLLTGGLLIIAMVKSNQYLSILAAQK

Row | EC100 [µM] | SMILES
1 | 1.91 | CC(C)(Oc1cc(N2CCC(C(C)(C)O)CC2)nc(-c2ccc(Cl)c(F)c2)n1)C(=O)[O-].[Na+] [Example 16]
2 | 1.75 | CCC(CC)(Oc1cc(N2CCC(OC)CC2)nc(-c2ccc(Cl)c(F)c2)n1)C(=O)[O-].[Na+] [Example 33]
3 | 0.59 | COC[C@@H]1CCCN1c1cc(OC2(C(=O)[O-])CC2)nc(-c2ccc(Cl)c(F)c2)n1.[Na+] [Example 36]
4 | 0.69 | COC[C@H]1CCCN1c1cc(OC2(C(=O)[O-])CC2)nc(-c2ccc(Cl)c(F)c2)n1.[Na+] [Example 37]
5 | 0.25 | COCC1CCN(c2cc(OC3(C(=O)[O-])CC3)nc(-c3ccc(Cl)c(F)c3)n2)CC1.[Na+] [Example 39]
6 | 0.33 | O=C([O-])C1(Oc2cc(NC3CCCC3)nc(-c3ccc(Cl)c(F)c3)n2)CC1.[Na+] [Example 47]
7 | 1.05 | CCO[C@H]1CCCN(c2cc(OC3(C(=O)[O-])CC3)nc(-c3ccc(Cl)c(F)c3)n2)C1.[Na+] [Example 50]
8 | 1.09 | CCOC1CCN(c2cc(OC3(C(=O)[O-])CC3)nc(-c3ccc(Cl)c(F)c3)n2)C1.[Na+] (stereo not drawn) [Example 51]
9 | 1.31 | COC[C@@H]1CCCN1c1cc(OC2(C(=O)[O-])CCCC2)nc(-c2ccc(Cl)c(F)c2)n1.[Na+] [Example 54]
10 | 0.36 | CC(C)(Oc1cc(-c2ccc(F)cc2)nc(-c2ccc(Cl)c(F)c2)n1)C(=O)[O-].[Na+] [Example 474]
11 | 1.83 | COCc1ccc(-c2cc(OC(C)(C)C(=O)[O-])nc(-c3ccc(Cl)c(F)c3)n2)cc1.[Na+] [Example 485]
12 | 1.38 | COc1nc(-c2cc(OC(C)(C)C(=O)[O-])nc(-c3ccc(Cl)c(F)c3)n2)cs1.[Na+] [Example 506]
13 | 0.14 | O=C([O-])C1(Oc2cc(-c3ccc(F)cc3)nc(-c3ccc(Cl)c(F)c3)n2)CC1.[Na+] [Example 512]
14 | 0.1 | COc1ccc(-c2cc(OC3(C(=O)[O-])CC3)nc(-c3ccc(Cl)c(F)c3)n2)cc1F.[Na+] [Example 518]
15 | 0.12 | COc1cc(F)cc(-c2cc(OC3(C(=O)[O-])CC3)nc(-c3ccc(Cl)c(F)c3)n2)c1.[Na+] [Example 519]
16 | 0.32 | COc1ccc(F)cc1-c1cc(OC2(C(=O)[O-])CC2)nc(-c2ccc(Cl)c(F)c2)n1.[Na+] [Example 520]
17 | 0.39 | COc1cc(-c2cc(OC3(C(=O)[O-])CC3)nc(-c3ccc(Cl)c(F)c3)n2)ccc1F.[Na+] [Example 522]
18 | 0.36 | COCc1cccc(-c2cc(OC3(C(=O)[O-])CC3)nc(-c3ccc(Cl)c(F)c3)n2)c1.[Na+] [Example 526]
19 | 0.12 | O=C([O-])C1(Oc2cc(-c3ccc4c(c3)OCCO4)nc(-c3ccc(Cl)c(F)c3)n2)CC1.[Na+] [Example 529]
20 | 0.5 | CCOc1ncccc1-c1cc(OC2(C(=O)[O-])CC2)nc(-c2ccc(Cl)c(F)c2)n1.[Na+] [Example 533]
21 | 0.29 | N#Cc1cccc(-c2cc(OC3(C(=O)[O-])CC3)nc(-c3ccc(Cl)c(F)c3)n2)c1.[Na+] [Example 548]

Row | EC100 [µM] | SMILES
22 | 0.33 | N#Cc1ccc(-c2cc(OC3(C(=O)[O-])CC3)nc(-c3ccc(Cl)c(F)c3)n2)cc1.[Na+] [Example 549]
23 | 0.2 | O=C([O-])C1(Oc2cc(-c3ccccc3O)nc(-c3ccc(Cl)c(F)c3)n2)CC1.[Na+] [Example 552]
24 | 0.1 | CCOc1cccc(-c2cc(OC3(C(=O)[O-])CC3)nc(-c3ccc(Cl)c(F)c3)n2)c1.[Na+] [Example 553]
25 | 0.3 | O=C([O-])C1(Oc2cc(-c3cccc(C(F)(F)F)c3)nc(-c3ccc(Cl)c(F)c3)n2)CC1.[Na+] [Example 555]
26 | 0.03 | O=C([O-])C1(Oc2cc(-c3cccc(C(F)(F)F)c3)nc(-c3ccc(Cl)c(F)c3)n2)CC1.[Na+] [Example 556]
27 | 0.04 | O=C([O-])C1(Oc2cc(-c3ccc(F)cc3O)nc(-c3ccc(Cl)c(F)c3)n2)CC1.[Na+] [Example 558]
28 | 0.36 | O=C([O-])C1(Oc2cc(-c3nccs3)nc(-c3ccc(Cl)c(F)c3)n2)CC1.[Na+] [Example 559]
29 | 0.01 | O=C([O-])C1(Oc2cc(-c3cncc(Cl)c3)nc(-c3ccc(Cl)c(F)c3)n2)CC1.[Na+] [Example 563]
30 | 0.56 | COc1ncccc1-c1cc(OC2(C(=O)[O-])CCCC2)nc(-c2ccc(Cl)c(F)c2)n1.[Na+] [Example 566]
31 | 2.15 | O=C([O-])C1(Oc2cc(-c3nccs3)nc(-c3ccc(Cl)c(F)c3)n2)CCCC1.[Na+] [Example 570]
32 | 1.07 | COc1ccc(F)c(-c2cc(OC3(C(=O)[O-])CCOCC3)nc(-c3ccc(Cl)c(F)c3)n2)c1.[Na+] [Example 572]
33 | 0.05 | COc1cc(F)cc(-c2cc(OC3(C(=O)[O-])CCOCC3)nc(-c3ccc(Cl)c(F)c3)n2)c1.[Na+] [Example 573]
34 | 0.12 | COc1cc(F)ccc1-c1cc(OC2(C(=O)[O-])CC2)nc(-c2cccc(F)c2)n1.[Na+] [Example 613]
35 | 1.23 | COCCN(CC(=O)O)c1cc(-c2ccc(F)cc2)nc(-c2ccc(Cl)c(F)c2)n1 [Example 646]
36 | 1.29 | O=C([O-])C1(Oc2cc(N3CCN(c4ncccn4)CC3)nc(-c3ccc(Cl)c(F)c3)n2)CC1.[Na+] [Example 664]
37 | 0.16 | O=C(O)C1(Nc2cc(-c3ccc(F)cc3)nc(-c3ccc(Cl)c(F)c3)n2)CC1 [Example 706]
38 | 0.12 | CCOc1cc(F)ccc1-c1cc(OC2(C(=O)O)CC2)nc(-c2ccc(F)cc2)n1 [Example 709]
39 | 0.14 | CC(C)Oc1cc(F)ccc1-c1cc(OC2(C(=O)O)CC2)nc(-c2ccc(F)cc2)n1 [Example 710]
40 | 0.48 | O=C(O)C1(Oc2cc(-c3ccc(C(F)(F)F)nc3)nc(-c3ccc(Cl)c(F)c3)n2)CC1 [Example 888]
41 | 0.55 | CCc1ccc(F)cc1-c1cc(OC2(C(=O)O)CC2)nc(-c2ccc(F)cc2)n1 [Example 892]

Row | SMILES | EC100 [µM]
42 | COC[C@@H]1CCCN1c1nc(OC(C)(C)C(=O)[O-])nc(-c2ccc(Cl)c(F)c2)n1.[Na+] [Example 6] | 1.61
43 | COCC1CCN(c2cc(OC(C)(C)C(=O)[O-])nc(-c3ccc(Cl)c(F)c3)n2)CC1.[Na+] [Example 17] | 2.47
44 | COC[C@@H]1CCCN1c1cc(OC2(C(=O)[O-])CC2)nc(-c2cccc(C(F)(F)F)c2)n1.[Na+] [Example 62] | 1.5
45 | COC[C@@H]1CCCN1c1cc(OC2(C(=O)[O-])CC2)nc(-c2ccc(C(F)(F)F)cc2)n1.[Na+] [Example 63] | 1.28
46 | CCOc1cccc(-c2nc(OC3(C(=O)[O-])CC3)cc(N3CCC[C@H]3COC)n2)c1.[Na+] [Example 65] | 1.43
47 | COC[C@@H]1CCCN1c1cc(OC2(C(=O)[O-])CC2)nc(-c2ccc(Cl)s2)n1.[Na+] [Example 67] | 1.92
48 | COCC1CCN(c2cc(OC3(C(=O)[O-])CC3)nc(-c3ccc(Cl)s3)n2)CC1.[Na+] [Example 69] | 2.56
49 | CCCOC1CCN(c2cc(OC3(C(=O)[O-])CC3)nc(-c3ccc(F)cc3)n2)CC1.[Na+] [Example 78] | 1.41
50 | COc1ccc(C(C)=O)cc1-c1cc(OC2(C(=O)[O-])CC2)nc(-c2ccc(Cl)c(F)c2)n1.[Na+] [Example 199] | 1.14
51 | COc1cccc(-c2cc(OC(C)(C)C(=O)[O-])nc(-c3ccc(Cl)c(F)c3)c2)c1.[Na+] [Example 206] | 0.68
52 | COc1ccccc1-c1nc(OC(C)(C)C(=O)[O-])nc(-c2ccc(Cl)c(F)c2)n1.[Na+] [Example 207] | 1.91
53 | COc1cc(F)ccc1-c1cc(OC2(C(=O)[O-])CC2)nc(-c2ccc(F)c(F)c2)n1.[Na+] [Example 208] | 0.38
54 | COCCOc1cc(F)ccc1-c1cc(OC2(C(=O)[O-])CC2)nc(-c2ccc(Cl)c(F)c2)n1.[Na+] [Example 209] | 0.27
